The subject of test [1] is Th17 cells. In words: FACS of IL-17 and IL-23R.GFP in Th17 cells treated with free fatty acids. It counts as cell-based, mouse. How it is done: (§1) (A) Naïve T cells were sorted from either WT or IL-23RGFP reporter mice, activated with plate-bound anti-CD3/anti-CD28 and differentiated with TGFβ1+IL-6 for 48 hours. […] (B) Cells from WT and Rorc^−/− mice were sorted, differentiated and treated with FFA as in A. Cells were harvested for RNA purification and qPCR. (C) Naïve WT and CD5L^−/− T cells were differentiated as in A. Cells were then lifted, washed and replated in fresh media with no addition of cytokines and in the presence of control or 5 uM of arachidonic acid (PUFA). Cytokine profile of T cells were measured after PMA/ionomycin restimulation. […] Another 48 hours later, cells were harvested for nanostring analysis (D) or qPCR (E).

The subject of test [2] is Th17 cells. In words: qPCR and Nanostring signature analysis of Th17 cells treated with free fatty acids. The test is classed as cell-based, mouse. Here is the method:
as §1
Next, the contribution of lipid saturation to Th17 cell pathogenicity was studied.

Test [3] addresses T1, Rorγt (Mus musculus, UniProt P51450).
T1 sequence (P51450 1-495 isoform P51450-2): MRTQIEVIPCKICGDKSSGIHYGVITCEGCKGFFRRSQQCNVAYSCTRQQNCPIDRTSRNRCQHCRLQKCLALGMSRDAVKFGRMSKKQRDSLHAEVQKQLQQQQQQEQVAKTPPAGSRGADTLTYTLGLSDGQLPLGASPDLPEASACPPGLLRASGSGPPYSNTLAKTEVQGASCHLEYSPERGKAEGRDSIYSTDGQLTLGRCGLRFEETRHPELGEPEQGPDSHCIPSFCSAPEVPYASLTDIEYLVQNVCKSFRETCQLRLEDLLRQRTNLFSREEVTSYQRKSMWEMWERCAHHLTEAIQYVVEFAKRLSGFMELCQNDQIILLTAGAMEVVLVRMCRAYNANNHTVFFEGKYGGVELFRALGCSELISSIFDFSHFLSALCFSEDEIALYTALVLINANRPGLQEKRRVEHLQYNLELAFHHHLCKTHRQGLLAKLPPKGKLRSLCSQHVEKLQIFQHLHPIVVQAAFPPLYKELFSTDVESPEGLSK
In words: Dual luciferase reporter assay in EL4 cells stably transfected with Rorγt vector. Also on record: expressed in transfected cells; host or cells: EL4 cells, stably transfected. As to conditions: for Rorγt driven Il17a transcription: 10 μM arachidonic acid. The test is classed as cell-based. Here is the method:
(§2) Lipidome analysis of Th17 cells. (A) WT and CD5L^−/− naïve T cells were differentiated as in FIG. 46B in the presence of cytokines as indicated. Cells and supernatant were harvested at 96 hours and subjected to MS/LC. Three independent mouse experiments were performed. […] (B) Expression of representative metabolites including a cholesterol ester and a PUFA-containing TAG species. FIG. 48 C, D, E, F-J show as follows: (C) Metabolomic analysis of independent mouse experiments where T cells were differentiated under various cytokine conditions as indicated and harvested at 48 h and 96 h. (D,E) Rorγt ChIP from Th17 cells differentiated as described in A. under various conditions as indicated. F-K. Dual luciferase reporter assay was performed in EL4 cells stably transfected with a control vector or Rorγt vector. (F, G) CD5L retroviral vector was cotransfected in F and G at 0, 25, 50 and 100 ng/well. […] All ChIP and luciferase assay are representative of at least 3 independent experiments.

The target of test [4] is T1, Rorγt. In words: Rorγt ChIP-PCR in Th17 cells with added SFA or PUFA. It counts as cell-based. Also on record: endogenous in cells; host or cells: wild-type mouse Th17 cells differentiated in vitro from naïve CD4+ T cells. Conditions: WT Th17 cells. How it is done: as §2
For another test, the system named is Cd5l expression. In words: Cd5l expression by qPCR in TGFβ1+IL-6 Th17 cells expanded with or without IL-23. As to conditions: naïve T cells differentiated with TGFβ1+IL-6 for 48 h, then IL-23 vs PBS in fresh media. The test is classed as cell-based, mouse. An excerpt:
FIG. 45A-45H show Single-cell RNA-seq identifies Cd5l as a novel regulator associated with Th17 cell pathogenicity and expressed only by non-pathogenic Th17 cells. Single-cells were sorted from in-vitro Th17 cells differentiated with TGFβ1+IL-6 (A,B), IL-1β+IL-6+IL-23 (C), TGFβ3+IL-6 (D) and in-vivo Th17 cells from CNS of mice at the peak of EAE (score=3) (D). IL-17A.GFP^+ CD4^+ T cells were sorted in all panels in D. (A) Correlation of CD5L expression in non-pathogenic Th17 cells with the pathogenic signature (Lee, Awasthi et al.). (B) Principal Component Analysis of CD5L expression where the direction of PC1 correlates with pathogenicity. (C, D) Histogram of CD5L expression in single-cell from conditions as indicated. CD5L expression in vitro is validated by qPCR (E, F) and flow cytometry (G). […] CD5L expression was measured by qPCR at 48 h (E) and 72 h (F) and intracellularly by flow cytometry at 48 h (G); (F) At 48 h, cells were lifted from plate, washed and replated in fresh media with IL-23 or PBS and cultured for additional 24 h. […] Cd5l and Il17a expression are measured by qPCR. […] I. IL-17^+ (GFP^+) and IL-17^− (GFP^−) CD4^+ cells were sorted from the gut of naïve mice and the number of RNA transcripts measured by nanostring and normalized based on four house-keeping genes. […]

“Also recorded” adds a separate entry of the source.

On to `CCCCC/C=C\C/C=C\C/C=C\C/C=C\CCCC(=O)O` [PUFA, arachidonic acid], for which the “percentage of IL-17+ CD4+ T cells” value in the test on Th17 cells [1] (CD5L−/− Th17 cells, non-pathogenic condition, 5 uM arachidonic acid) was “reduced percentage”. In addition, the “percentage of IL-23R.GFP+ CD4 T cells” value in the test with Th17 cells [1] (IL-23RGFP reporter Th17 (TGFβ1+IL-6) expanded with IL-23, 10 uM arachidonic acid or 20 uM palmitic acid, 48 h, FACS) is “suppressed”. In addition, in the test on Th17 cells [1] (WT Th17 (TGFβ1+IL-6) expanded with IL-23, 10 uM arachidonic acid or 20 uM palmitic acid, 48 h, FACS), the “percentage of IL-17+ CD4 T cells” value is on record as “suppressed”. Moreover, in the test on Th17 cells [2] (CD5L−/− Th17 cells (TGFβ1+IL-6), 5 uM arachidonic acid, Nanostring nCounter), the “316 gene signature of Th17 cell differentiation and function” value is “resemble WT non-pathogenic Th17 cells”. In the test with Th17 cells [2] (qPCR), the Il22 expression entry is reported as “increased”; the “expression of key pathogenicity signature genes Il10, Il23r, Ccl5, Csf2 and Lag3” value is recorded as “reciprocally regulated”. In the test on Th17 cells [2] (qPCR, Rorγt−/− cells), the “effect on Il17 and Il23r expression in Rorγt−/− Th17 cells” value is given as “abolished”. Further, on Rorγt [3] (added to the agonist ligand), the Il10 transactivation result is “enhanced” and the “Rorγt-mediated Il23r transactivation” value is “almost completely inhibited”. Besides, the “Rorγt driven Il17a transcription” value at Rorγt [3] (cells expressing CD5L) is “but not in those expressing CD5L”. At Rorγt [3] (control cells), the “Rorγt driven Il17a transcription” value was “decreased”. For the same molecule, the “Rorγt binding to the Il10 CNS-9 region” value on Rorγt [4] was “significantly increased; also recorded: enhanced”.

B1: IL-23: proinflammatory cytokine; recombinant mouse IL-23 (protein, UniProt Q9EQ14 22-196; P43432 23-335, looked up)
Interleukin-23 subunit alpha: VPRSSSPDWAQCQQLSRNLCMLAWNAHAPAGHMNLLREEEDEETKNNVPRIQCEDGCDPQGLKDNSQFCLQRIRQGLAFYKHLLDSDIFKGEPALLPDSPMEQLHTSLLGLSQLLQPEDHPRETQQMPSLSSSQQWQRPLLRSKILRSLQAFLAIAARVFAHGAATLTEPLVPTA
Interleukin-12 subunit beta: MWELEKDVYVVEVDWTPDAPGETVNLTCDTPEEDDITWTSDQRHGVIGSGKTLTITVKEFLDAGQYTCHKGGETLSHSHLLLHKKENGIWSTEILKNFKNKTFLKCEAPNYSGRFTCSWLVQRNMDLKFNIKSSSSSPDSRAVTCGMASLSAEKVTLDQRDYEKYSVSCQEDVTCPTAEETLPIELALEARQQNKYENYSTSFFIRDIIKPDPPKNLQMKPLKNSQVEVSWEYPDSWSTPHSYFSLKFFVRIQRKKEKMKETEEGCNQKGAFLVEKTSTEVQCKGGNVCVQAQDRYYNSSCSKWACVPCRVRS
With B1, the Cd5l expression result with Cd5l expression is “significantly suppressed”.

Values taken from US11209440B2, “T cell balance gene expression, compositions of matters and methods of use thereof” (THE BROAD INSTITUTE, INC., priority 2014, dated 2021).
